Laboratory results: paper PMC11395333, “The Bifunctional Dimer Caffeine-Indan Attenuates α-Synuclein Misfolding, Neurodegeneration and Behavioral Deficits after Chronic Stimulation of Adenosine A1 Receptors” (International Journal of Molecular Sciences, 2024)

Key:
Type in all cases: in vivo, rat
[1] = tested on: male Sprague-Dawley rats; test: Open field test after 7-day chronic i.p. CPA injection
Description: All animals were housed and treated humanely following the guidelines from the following governing bodies: National Research Council (US) Committee for the Update of the Guide for the Care and Use of Laboratory Animals (Washington DC, USA, 2011); Canadian Council on Animal Care (CCAC); and the University of Saskatchewan Animal Research Ethics Board (AREB), which approved our Animal Use Protocol (#20070090 and #20170079). The animals were housed in cages of two, with access to food pellets and water ad libitum. The four treatments of the Sprague-Dawley rats consisted of the following: 1. Control (0.1% DMSO in 0.9% saline); 2. CPA; 3. […] Drugs were dissolved at 3 mg/mL in DMSO, and each drug was administered to the animals by daily i.p. injections (3 mg/kg or 5 mg/kg body weight) for 7 consecutive days. […] Then, on days 8 and 9 following the final injections, the animals were subjected to several behavioral tests. The open field is a general locomotor test that detects anxiety and willingness to explore. The test is conducted in a white open cube measuring 50 cm in length, 50 cm in width and 35 cm in depth. The bottom field is gridded in 4x4 squares at 12.5 cm, with a center square in the middle of the field. The animal is placed in the center square and is free to explore the entirety of the field for 15 min. […] This trial is then used to calculate the percentage of time the animals spent in the center zone (red square) and the total fecal boli count. A video camera was used to record the animal movement in this test. The open field test was conducted after a 1 h resting period from the time the Y-maze second trial was completed. Each experiment was repeated at least ten times per treatment and the average of each treatment is presented in the bar graphs as average means ± SEM.

[2] = tested on: male Sprague-Dawley rats; test: Y-maze test after 7-day chronic i.p. CPA injection
Description: All animals were housed and treated humanely following the guidelines from the following governing bodies: National Research Council (US) Committee for the Update of the Guide for the Care and Use of Laboratory Animals (Washington DC, USA, 2011); Canadian Council on Animal Care (CCAC); and the University of Saskatchewan Animal Research Ethics Board (AREB), which approved our Animal Use Protocol (#20070090 and #20170079). The animals were housed in cages of two, with access to food pellets and water ad libitum. The four treatments of the Sprague-Dawley rats consisted of the following: 1. Control (0.1% DMSO in 0.9% saline); 2. CPA; 3. […] Drugs were dissolved at 3 mg/mL in DMSO, and each drug was administered to the animals by daily i.p. injections (3 mg/kg or 5 mg/kg body weight) for 7 consecutive days. […] Then, on days 8 and 9 following the final injections, the animals were subjected to several behavioral tests. The Y-maze or the modified Y-maze is a rodent behavior test used to assess short-term spatial memory based on the innate inclination of animals to explore new areas not previously seen. In this study, the Y-maze test is used to assess short-term memory, especially hippocampal-dependent spatial memory. The maze is shaped like a “Y”, with each arm oriented at a 120° angle from one another. The arms are 50 cm in length, 15 cm in width and 35 cm in depth. For the first trial, which lasts 15 min, the animal is placed at the beginning of the “Start arm” and is free to explore this arm and another one (referred to as the “Old arm”), while the remaining arm (“New arm”) is blocked. This trial should give the animal time to explore and become acquainted with the maze’s two arms. After a resting period of 90 min, the blocked arm is opened, and the animal is placed again at the “Start arm”. […] This trial is then used to calculate the percentage of time the animals spent in each arm. A video camera was used to record the animal movement in both trials. Each experiment was repeated at least fifteen times per treatment and the average of each treatment is presented in the bar graphs as average means ± standard error of the mean (SEM).

[3] = tested on: SN pars compacta and hippocampal CA1 neurons; test: Fluoro-Jade C staining of brain slices (neurodegeneration)
Description: All animals were housed and treated humanely following the guidelines from the following governing bodies: National Research Council (US) Committee for the Update of the Guide for the Care and Use of Laboratory Animals (Washington DC, USA, 2011); Canadian Council on Animal Care (CCAC); and the University of Saskatchewan Animal Research Ethics Board (AREB), which approved our Animal Use Protocol (#20070090 and #20170079). The animals were housed in cages of two, with access to food pellets and water ad libitum. The four treatments of the Sprague-Dawley rats consisted of the following: 1. Control (0.1% DMSO in 0.9% saline); 2. CPA; 3. […] Drugs were dissolved at 3 mg/mL in DMSO, and each drug was administered to the animals by daily i.p. injections (3 mg/kg or 5 mg/kg body weight) for 7 consecutive days. […] Then, on days 8 and 9 following the final injections, the animals were subjected to several behavioral tests. Fluro-Jade C (FJC) is a fluorescent marker for neurodegeneration (Millipore-Sigma, Oakville, ON, Canada; Cat# AG325). […] Initially, the microscope slides were immersed in 1% NaOH/80% ethanol for 5 min followed by 2 min immersion in 70% ethanol. The slides were then rinsed for 2 min with ultra-pure water. The microscope slides were further immersed in 0.06% KMnO4 for 10 min, followed by an additional rinse for 2 min with ultra-pure water. The slides were then stained with 0.004% FJC in 0.1% acetic acid for 20 min with gentle shaking on an orbital shaker. Lastly, the slides were rinsed three times in ultra-pure water for 1 min each, making sure to remove all the excess water after each rinse. The slides were then rinsed in xylene and allowed to dry overnight at 4 °C. Then they were treated with Prolong Gold Antifade Reagent from Invitrogen (Thermo Fisher Scientific, Waltham, MA, USA), and respective images were taken using a Zeiss LSM700 confocal microscope (Carl Zeiss Group, Canada) and analyzed with ImageJ (Public Domain). FJC fluorescence was obtained by exciting the dye with a 488 nm laser.

[4] = CPA 3 mg/kg i.p. daily for 7 days, alone

Row | Structure (SMILES) | Open field, fecal boli count ([1]; 3 and 5 mg/kg i.p. with 3 mg/kg CPA, 7 days) | Open field, exploratory behavior and anxiety ([1]; co-administered with 3 mg/kg CPA, 7 days) | Y-maze, time spent in the start arm ([2]; 3 mg/kg i.p. with 3 mg/kg CPA, 7 days) | Y-maze, cognitive deficits ([2]; 5 mg/kg i.p. with 3 mg/kg CPA, 7 days) | Y-maze, percentage of time spent in the novel arm ([2]; 3 or 5 mg/kg i.p. co-administered with 3 mg/kg CPA, 7 days) | FJC staining in SNc ([3]; 3 mg/kg and 5 mg/kg + CPA) | FJC, neurodegeneration in CA1 region of the hippocampus ([3]; 3 mg/kg or 5 mg/kg with CPA) | Open field, percentage of time spent in the center square [1, 4] | Y-maze, hippocampal-dependent spatial memory [2, 4] | FJC fluorescence in SNc [3, 4] | FJC, degenerating neurons in CA1 region of the hippocampus [3, 4]
1 | Cn1c(=O)c2c(nc(CCCCCCNC3CCc4ccccc43)n2C)n(C)c1=O (centres unmarked) [C8–6–I] | significantly decreased the fecal boli count | improved the exploratory behavior and reduced the anxiety caused by CPA | approximately 45% | significantly ameliorated the cognitive deficits caused by CPA | attenuated the learning deficits caused by CPA | did not significantly increase FJC staining compared to the vehicle control slices | prevented neurodegeneration in hippocampal slices | – | – | – | –
2 | OC[C@H]1O[C@@H](n2cnc3c(NC4CCCC4)ncnc32)[C@H](O)[C@@H]1O [CPA, N^6-Cyclopentyladenosine, reference compound] | – | – | – | – | – | – | – | significantly lower percentage of time spent in the center square | induced hippocampal-dependent spatial memory deficits | increased the levels of FJC fluorescence compared to the control | much higher levels of degenerating CA1 pyramidal neurons compared to the control
